Earlier results in patent US8841334B2, “Compounds as cannabinoid receptor ligands and uses thereof” (priority 2006, dated 2014).

Experiments:
rodent models = rodent models of neuropathic, incisional, and both chronic and acute inflammatory pain
rat = rat formalin model of persistent pain
[1] = tested on: apolipoprotein E knockout mice
[2] = tested on: microglial activation and neurotoxicity; settings: in vitro
mice = settings: model for post-menopausal osteoporosis
animal models = animal models of acute thermal pain, persistent pain, inflammatory pain and neuropathic pain

COc1ccc2c(c1)c(CCN1CCOCC1)c(C)n2C(=O)c1cccc(Cl)c1Cl [GW405833]
efficacy in pain models (rodent models): efficacious

CCCCCCC(C)(C)c1cc(OC)c([C@@H]2C=C(CO)[C@@H]3C[C@H]2C3(C)C)c(OC)c1 [HU-308]
antinociceptive response (rat): elicits an antinociceptive response

(−)-Δ^9-Tetrahydrocannabinol [THC]
progression of atherosclerotic lesions ([1]; low doses): slowed the progression of atherosclerotic lesions

SR144528
block of the effects of JWH-133 on microglial activation and neurotoxicity [2]: blocked
osteoclast activity (osteoclast activity): inhibit osteoclast activity
ovariectomy-induced bone loss (mice): reverse ovariectomy-induced bone loss
inhibition of the effects of THC on atherosclerotic lesions ([1]; mouse, in vivo): inhibited

CCCC(C)(C)c1ccc2c(c1)OC(C)(C)[C@@H]1CC=C(C)C[C@@H]21 [JWH-133]
[…]-amyloid-induced microglial activation and neurotoxicity [2]: abrogated

CN1CCCCC1Cn1cc(C(=O)c2cc([N+](=O)[O-])ccc2I)c2ccccc21 (stereo not drawn) [AM-1241]
analgesic efficacy (animal models): robust analgesic efficacy
